Source: patent publication US20240294467A1, “USP9X Inhibitors” (ProDeg, LLC, priority 2021, published 2024)
Like-named read-outs stand apart in the source and are kept apart here.

Assays:
USP9X [1] = target: T1, USP9X (Homo sapiens (Human), UniProt Q93008); test: Steady-state enzyme inhibition kinetics of USP9X; assay type: biochemical
Source text: The data were fit to a general model for enzyme inhibition (FIG. 1E) so the values of the parameters determined from the assays specified the mode of inhibition. For example, in the case of α=1 and β=0, it corresponded to purely non-competitive inhibition. For α=infinity and p=1, it corresponded to purely competitive inhibition. The values of all the parameters, KS, KI, kcat, α, and β could be determined from the steady state measurements. The enzyme reactions were set up as described in the Inhibiting the catalytic activity of USP9X section. The concentration of the substrate ubqiutin-rhodamine110 was varied. The initial rates of the reactions were determined at several concentrations of the inhibitor Compound 2A. In order to determine the values of the parameters KS and kcat, the reaction rates in the absence of the inhibitor Compound 2A, the initial reaction rate data were fit to the standard Michaelis-Menten equation v=Vmax [S]/(Km+[S]). The values of α and β could then be determined by fitting the initial rate data of the enzyme reaction at various concentrations of Compound 2A to a modified version of the Michaelis-Menten equation, designating both Vmax and KS apparent to distinguish the apparent values of the parameters determined from these plots to the true values for these parameters determined from the steady state kinetics in the absence of Compound 2A. The values of α and β could be determined from the variation of the slopes and intercepts of the series of double reciprocal plots of 1/v versus 1/[S] for each concentration of Compound 2A. […] The two values determined for KI were from the two different plots.
The two values for KI were determined by two different methods for determining this parameter from the kinetic data: 1 represented a value determined from the slope of the 1/A intercept vs 1/[I] plot; 2 represented a value determined from the y intercept of the 1/A slope vs 1/[I] plot. […] Only the values of the parameters varied for the compounds.

USP9X [2] = target: T1, USP9X; test: USP9X enzyme activity assay, ubiquitin-rhodamine110 substrate
Mcl-1 = test: Western blot of Mcl-1 in U937 cells; assay type: cell-based
Description: After 24 hours treatment with Compound 7A, U937 cells were collected by centrifugation and whole cell lysates were prepared. These lysates were analyzed by Western blot to determine the level of Mcl-1. Western blot analysis was carried out as previously described (Wang et al., 2014 Journal of the American Society of Nephrology DOI: 10.1681/asn.2013060665). The band intensity for Mcl-1 in these samples were normalized to that of tubulin to correct for any inconsistencies in total protein in loading and processing the whole cell lysates.
To investigate the mechanism of action, Western blot analysis was carried out to test the induced degradation of USP9X substrate Mcl-1 by the compounds under the effects of protein synthesis inhibitor cycloheximide and/or proteasome inhibitor MG132. U937 cells were treated with 10 μM cycloheximide for one hour, with 10 μM MG132 for one hour, with the combination of 10 μM cycloheximide and 10 μM MG132 for one hour, and with vehicle (DMSO) for one hour, respectively, prior to the treatment with Compound 5A for 24 hrs. The U937 cells were harvested after treatment and whole cell lysates were prepared. These lysates were analyzed by Western blot to determine the abundance of Mcl-1 as well as that of tubulin as a normalization control. […] The band intensity of the Mcl-1 in cells treated with cycloheximide alone (Lane 2) was reduced relative to that for tubulin. […] Global blockade of protein synthesis by cycloheximide led to a significant decrease in the expression levels, especially for short lived Mcl-1. The retention of a reduced portion of Mcl-1 indicated the immunity of this portion to proteasomal degradation. […] In contrast, the band intensity of Mcl-1 relative to that of tubulin increased upon treatment of U937 cells with the proteasome inhibitor MG132 (Lane 4). […] Together, the results of this Example are consistent with the compounds acting on the proposed mechanism that intracellular inhibition of the deubiquitylase activity of USP9X blocks its ability to rescue USP9X substrates such as Mcl-1 from proteasomal degradation. In other aspects, by varying the concentration ratios of the compound and proteasome inhibitor for treating cells, it was possible to achieve controlled degradation of a USP9X substrate so the substrate could decline to a desirable level rather than degrade entirely.

LoVo = test: ONCOLINES Profiler proliferation; assay type: cell-based; details: for IC50: colorectal adenocarcinoma
Source text: (§1) The compounds were profiled on an ONCOLINES™ Profiler (Netherlands Translational Research Center) assayed with 66 cancer cell lines to determine if they were capable of inhibiting the proliferation of these cancer cells.
(§2) To further evaluate potency of the compounds, they were compared with the USP9X inhibitor WP 1130 by screening both the compounds and WP1130 on a 66-cancer cell line panel ONCOLINES™ Profiler.

DU 145 = test: ONCOLINES Profiler proliferation; assay type: cell-based
Source text: as §1, §2

A-172 = test: ONCOLINES Profiler proliferation; assay type: cell-based
Source text: as §1, §2

Hs 57BT = test: ONCOLINES Profiler proliferation; assay type: cell-based; details: for IC50: Hs 57BT (Hs578T), breast carcinoma
Source text: as §1, §2

H82 = test: ONCOLINES Profiler proliferation; assay type: cell-based
Source text: as §1, §2

A549 = test: ONCOLINES Profiler proliferation; assay type: cell-based
Source text: as §1, §2

BT-20 = test: ONCOLINES Profiler proliferation; assay type: cell-based
Source text: as §1, §2

MOLT-4 = test: ONCOLINES Profiler proliferation; assay type: cell-based
Source text: as §1, §2

CCRF-CEM = test: ONCOLINES Profiler proliferation; assay type: cell-based; details: for IC50: acute lymphoblastic leukemia
Source text: as §1, §2

RPMI-7951 = test: ONCOLINES Profiler proliferation; assay type: cell-based
Source text: as §1, §2

[3] = from the slope of the 1/Δ intercept vs 1/[I] plot, read-out: KI, nM (1)
[4] = from the y intercept of the 1/Δ slope vs 1/[I] plot, read-out: KI, nM (2)
[5] = read-out: IC50 for the inhibition of USP9X activity, ubiquitin-rhodamine110 substrate
[6] = read-out: USP9X IC50 nM, Table 2

T1 sequence (Q93008 whole entry): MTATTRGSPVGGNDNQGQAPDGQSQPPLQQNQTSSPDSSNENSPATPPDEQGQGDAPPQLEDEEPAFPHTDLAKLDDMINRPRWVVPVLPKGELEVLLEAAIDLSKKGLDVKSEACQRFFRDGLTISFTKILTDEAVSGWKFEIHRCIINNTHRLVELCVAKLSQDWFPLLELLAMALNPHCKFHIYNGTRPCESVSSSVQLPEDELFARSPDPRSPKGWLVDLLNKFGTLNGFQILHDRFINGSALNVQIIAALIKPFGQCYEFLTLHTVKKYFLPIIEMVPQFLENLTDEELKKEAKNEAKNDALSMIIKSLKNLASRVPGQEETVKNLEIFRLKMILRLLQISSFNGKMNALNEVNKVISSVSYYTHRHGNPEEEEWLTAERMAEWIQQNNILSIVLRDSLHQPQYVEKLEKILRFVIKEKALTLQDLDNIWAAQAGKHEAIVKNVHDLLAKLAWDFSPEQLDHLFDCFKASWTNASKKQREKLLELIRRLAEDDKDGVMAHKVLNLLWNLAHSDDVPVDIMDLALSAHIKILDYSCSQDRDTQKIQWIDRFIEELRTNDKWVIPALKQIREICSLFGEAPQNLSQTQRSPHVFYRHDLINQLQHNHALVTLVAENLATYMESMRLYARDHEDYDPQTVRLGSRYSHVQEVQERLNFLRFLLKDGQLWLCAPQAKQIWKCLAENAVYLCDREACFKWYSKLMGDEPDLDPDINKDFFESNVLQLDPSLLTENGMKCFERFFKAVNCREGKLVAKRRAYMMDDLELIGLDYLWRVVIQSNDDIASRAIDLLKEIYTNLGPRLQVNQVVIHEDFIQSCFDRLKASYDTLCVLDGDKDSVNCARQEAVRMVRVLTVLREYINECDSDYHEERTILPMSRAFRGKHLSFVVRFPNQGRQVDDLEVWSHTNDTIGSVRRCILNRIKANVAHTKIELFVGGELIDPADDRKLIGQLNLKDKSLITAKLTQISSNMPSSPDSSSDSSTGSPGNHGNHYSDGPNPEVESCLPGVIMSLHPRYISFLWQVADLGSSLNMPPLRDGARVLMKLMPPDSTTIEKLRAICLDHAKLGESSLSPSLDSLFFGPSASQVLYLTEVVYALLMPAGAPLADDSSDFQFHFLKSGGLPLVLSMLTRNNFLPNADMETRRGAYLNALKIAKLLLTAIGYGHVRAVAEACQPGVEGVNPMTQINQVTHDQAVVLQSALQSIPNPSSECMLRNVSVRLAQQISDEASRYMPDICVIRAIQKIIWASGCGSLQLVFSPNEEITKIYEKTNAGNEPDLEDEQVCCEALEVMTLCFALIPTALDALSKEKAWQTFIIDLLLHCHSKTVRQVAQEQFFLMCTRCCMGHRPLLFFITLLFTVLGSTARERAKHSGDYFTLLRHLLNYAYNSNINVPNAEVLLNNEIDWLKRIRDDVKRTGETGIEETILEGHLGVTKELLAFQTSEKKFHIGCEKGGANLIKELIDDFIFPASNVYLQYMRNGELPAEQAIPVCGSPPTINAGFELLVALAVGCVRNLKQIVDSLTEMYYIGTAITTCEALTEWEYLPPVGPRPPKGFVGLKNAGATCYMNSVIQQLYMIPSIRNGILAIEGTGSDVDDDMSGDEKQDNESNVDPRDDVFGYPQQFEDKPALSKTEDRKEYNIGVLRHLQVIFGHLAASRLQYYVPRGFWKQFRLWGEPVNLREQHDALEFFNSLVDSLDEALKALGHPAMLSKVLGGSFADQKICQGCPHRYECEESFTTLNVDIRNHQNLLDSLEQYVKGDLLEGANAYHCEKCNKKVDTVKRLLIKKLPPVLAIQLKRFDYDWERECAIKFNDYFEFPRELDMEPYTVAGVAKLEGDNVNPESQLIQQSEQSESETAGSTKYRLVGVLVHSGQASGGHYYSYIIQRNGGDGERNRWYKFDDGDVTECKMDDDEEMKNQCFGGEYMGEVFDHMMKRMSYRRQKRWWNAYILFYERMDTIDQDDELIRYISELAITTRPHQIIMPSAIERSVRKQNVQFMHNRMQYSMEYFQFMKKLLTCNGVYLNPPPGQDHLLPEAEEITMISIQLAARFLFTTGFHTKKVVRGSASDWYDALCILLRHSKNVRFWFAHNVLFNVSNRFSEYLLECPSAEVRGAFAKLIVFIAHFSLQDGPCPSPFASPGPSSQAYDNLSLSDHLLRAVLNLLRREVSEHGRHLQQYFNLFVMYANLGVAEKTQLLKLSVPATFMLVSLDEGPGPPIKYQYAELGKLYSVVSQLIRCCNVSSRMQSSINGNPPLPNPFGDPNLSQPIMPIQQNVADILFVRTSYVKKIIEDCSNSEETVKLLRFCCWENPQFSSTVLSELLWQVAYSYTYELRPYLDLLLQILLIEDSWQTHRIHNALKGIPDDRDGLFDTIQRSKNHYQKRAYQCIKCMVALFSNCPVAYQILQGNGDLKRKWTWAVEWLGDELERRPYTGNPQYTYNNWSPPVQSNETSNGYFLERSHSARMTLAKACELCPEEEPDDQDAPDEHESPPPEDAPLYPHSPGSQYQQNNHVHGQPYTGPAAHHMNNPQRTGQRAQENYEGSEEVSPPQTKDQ

For CN1CCOc2ccc(cc2)C(=O)NCc2cccc(c2)C(=O)N[C@@H](CC(C)(C)C)C(=O)Nc2ccc(cc2)CCN(C)C(=O)CC(C)(C)CC1=O [Compound 5A], the “KS” value (USP9X [1]) was 1.2 µM, the “VMAX RFU/min” value (USP9X [1]) was 335 RFU/min and the α (USP9X [1]) was 2.3. The β (USP9X [1]) was 0.78, the Ki (USP9X [1]; [3]) was 6.7 nM and the Ki (USP9X [1]; [4]) was 24 nM. For the same compound, the IC50 (USP9X [2]; [5]) was 30 nM, the IC50 (USP9X [2]; [6]) was 30 nM and the “ability to induce the degradation of Mcl-1 on addition of MG132” value (Mcl-1; 10 μM MG132 one hour before compound) was “blocked”. The “reduction of Mcl-1” value (Mcl-1; Compound 5A for 24 hrs (Lane 3)) was “about 50%”.
CN1CCOc2ccc(cc2)C(=O)NCc2ccc(F)c(c2)C(=O)N[C@@H](CC(C)(C)C)C(=O)Nc2ccc(cc2)CCN(C)C(=O)CC(C)(C)CC1=O [Compound 7A] was tested, and the “KS” value (USP9X [1]) was 1.87 µM, the “VMAX RFU/min” value (USP9X [1]) was 589 RFU/min and the α (USP9X [1]) was 1.85. The β (USP9X [1]) was 0.72, the Ki (USP9X [1]; [3]) was 9.4 nM and the Ki (USP9X [1]; [4]) was 10.3 nM. For the same compound, the IC50 (USP9X [2]; [5]) was 11 nM, the IC50 (USP9X [2]; [6]) was 11 nM and the “IC50 Ratio WP1130/Compound 7A” value (LoVo) was 8.6. The IC50 (LoVo; Homo sapiens) was 635 nM, the IC50 (LoVo) was 640 nM and the “IC50 Ratio WP1130/Compound 7A” value (DU 145; DU145) was 4.8. For the same compound, the IC50 (DU 145; DU 145, prostate carcinoma) was 2000 nM, the IC50 (DU 145; Homo sapiens, DU-145, DU 145, prostate carcinoma) was 2010 nM and the “IC50 Ratio WP1130/Compound 7A” value (A-172; A-172) was 5.1. The IC50 (A-172; A-172, glioblastoma) was 1100 nM, the IC50 (A-172; Homo sapiens, A 172, A-172, glioblastoma) was 1070 nM and the IC50 (Hs 57BT; Homo sapiens, Hs-578T) was 1410 nM. The IC50 (Hs 57BT) was 1400 nM, the “IC50 Ratio WP1130/Compound 7A” value (Hs 57BT; Hs578T) was 4.5 and the “IC50 Ratio WP1130/Compound 7A” value (H82; H82) was 6.0. For the same compound, the IC50 (H82; Homo sapiens, NCI-H82, H82, small cell lung) was 1100 nM, the “IC50 Ratio WP1130/Compound 7A” value (A549; A549) was 4.7 and the IC50 (A549; Homo sapiens, A549, lung) was 3000 nM. For the same compound, the “IC50 Ratio WP1130/Compound 7A” value (BT-20; BT-20) was 3.6, the IC50 (BT-20; BT-20, breast carcinoma) was 1400 nM and the IC50 (BT-20; Homo sapiens, BT-20, BT-20, breast carcinoma) was 1390 nM. The IC50 (MOLT-4; Homo sapiens, MOLT-4, MOLT-4, acute lymphoblastic leukemia) was 594 nM, the “IC50 Ratio WP1130/Compound 7A” value (MOLT-4; MOLT-4) was 6.8 and the IC50 (MOLT-4; MOLT-4, acute lymphoblastic leukemia) was 590 nM. For the same compound, the “IC50 Ratio WP1130/Compound 7A” value (CCRF-CEM) was 17.6, the IC50 (CCRF-CEM; Homo sapiens) was 247 nM and the IC50 (CCRF-CEM) was 250 nM. The IC50 (RPMI-7951; Homo sapiens, RPMI-7951, RPMI-7951, malignant melanoma) was 1200 nM, the “IC50 Ratio WP1130/Compound 7A” value (RPMI-7951; RPMI7951) was 3.5 and the IC50 (RPMI-7951; RPMI-7951, malignant melanoma) was 1200 nM. The “decrease of normalized level of Mcl-1” value (Mcl-1; 24-hour treatment, concentration from 0 to 33 μm) was 50%.
